System: human fibroblasts
Experiment: Presence or absence of fatty acids in serum-free induction medium, Ucp1 and Ckmt1 by QRT-PCR (Test Example E)
Assay type: cell-based
Details: brown adipocytes induced from fibroblasts; FIGS. 8 and 9
Method: After the human fibroblasts reached 80% to 90% confluency, the medium in the dish was replaced with SFBAM which is serum-free or SFBAM in which albumin and fatty acid components were changed to the combinations shown in Table 10 of the compounds shown in Table 9, both of which contain all the compounds shown in Table 3, and the human fibroblasts were cultured in said respective media for three weeks (Examples 11 to 14). The medium was changed every three days. Thereafter, the expression amounts of marker genes, Ucp1 and Ckmt1, specific for brown adipose tissue were quantified by QRT-PCR. Symbol 1 (control) in the figures represents the result in SFBAM without the compounds shown in Table 3 necessary for induction into brown adipocytes.

## fatty acid-unbound albumin: Fatty acid-free albumin, in which a fatty acid is removed from an albumin (017-15146, FUJIFILM Wako)
  Expression levels of Ucp1 genes versus induction with fatty acid-bound albumin: much higher
